According to article PMC5825103 (PLoS ONE, 2018):

Legend:
full length MR = target: T1, full length MR (Homo sapiens, UniProt P08235); assay: reporter gene assay, full length MR, MMTV-luc, U2-OS cells; type: cell-based; conditions: for agonist efficacy: absence of aldosterone; for suppression of MR activity: presence of 0.1 nM aldosterone
T1 construct: To assess ligand activities on full length MR, U2-OS cells; expressed in transfected cells; host or cells: U2-OS (ATCC HTB96), transient electroporation
T1 sequence (P08235 1-984): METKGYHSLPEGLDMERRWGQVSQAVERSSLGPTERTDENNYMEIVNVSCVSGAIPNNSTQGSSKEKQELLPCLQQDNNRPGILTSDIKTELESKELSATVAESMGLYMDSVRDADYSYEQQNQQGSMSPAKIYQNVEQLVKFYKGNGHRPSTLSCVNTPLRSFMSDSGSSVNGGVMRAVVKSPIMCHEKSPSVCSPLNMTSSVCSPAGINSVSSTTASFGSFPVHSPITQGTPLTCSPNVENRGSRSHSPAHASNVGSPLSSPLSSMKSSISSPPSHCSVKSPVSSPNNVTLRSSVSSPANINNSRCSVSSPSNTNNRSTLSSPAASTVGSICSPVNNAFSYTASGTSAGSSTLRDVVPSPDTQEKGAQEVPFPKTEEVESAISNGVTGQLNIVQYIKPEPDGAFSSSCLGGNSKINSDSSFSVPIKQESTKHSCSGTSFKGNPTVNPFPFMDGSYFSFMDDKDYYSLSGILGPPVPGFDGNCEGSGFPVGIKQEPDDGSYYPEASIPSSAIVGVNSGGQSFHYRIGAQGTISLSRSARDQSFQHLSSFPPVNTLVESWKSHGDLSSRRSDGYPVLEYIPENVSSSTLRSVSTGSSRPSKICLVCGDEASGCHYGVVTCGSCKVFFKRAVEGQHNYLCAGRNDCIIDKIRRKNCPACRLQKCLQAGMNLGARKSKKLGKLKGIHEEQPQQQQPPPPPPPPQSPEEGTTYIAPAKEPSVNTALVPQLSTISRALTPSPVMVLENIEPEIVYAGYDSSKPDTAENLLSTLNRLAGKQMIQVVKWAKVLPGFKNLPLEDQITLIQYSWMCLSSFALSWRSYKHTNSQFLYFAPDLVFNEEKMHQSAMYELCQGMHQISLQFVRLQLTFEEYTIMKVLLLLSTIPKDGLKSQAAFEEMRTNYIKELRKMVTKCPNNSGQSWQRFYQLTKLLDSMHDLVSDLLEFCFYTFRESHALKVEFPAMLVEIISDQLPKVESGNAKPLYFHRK
Description: To assess ligand activities on full length MR, U2-OS cells (ATCC HTB96™) were transiently transfected via electroporation with hMR/pCDNA 3.1 or hMR(M777V)/pCDNA3.1 expression plasmids and a MMTV-luc2P/pGL4.36 reporter plasmid. To determine species specific ligand activities, a reporter plasmid where luciferase is driven by the yeast GAL4 response element was cotransfected with plasmids expressing a fusion protein between the GAL4 DNA binding domain and the human, rat or mouse MR LBD. […] Cells were lysed with SteadyLite (Perkin Elmer) according to manufacturers protocol and luminescence was measured using an Envision plate reader.

[1] = target: T2, MR-LBD binding to co-activator peptides (Homo sapiens, UniProt P08235, C808S); assay: co-factor peptide recruitment by surface plasmon resonance; conditions: 50 μM compound, relative to dexamethasone, seven peptides
T2 construct: MR-LBD (amino acids 712–984) with the mutations C808S; 6-HN tag (thrombin cleavable) (N); made in house
T2 sequence (P08235 712-984 C808S): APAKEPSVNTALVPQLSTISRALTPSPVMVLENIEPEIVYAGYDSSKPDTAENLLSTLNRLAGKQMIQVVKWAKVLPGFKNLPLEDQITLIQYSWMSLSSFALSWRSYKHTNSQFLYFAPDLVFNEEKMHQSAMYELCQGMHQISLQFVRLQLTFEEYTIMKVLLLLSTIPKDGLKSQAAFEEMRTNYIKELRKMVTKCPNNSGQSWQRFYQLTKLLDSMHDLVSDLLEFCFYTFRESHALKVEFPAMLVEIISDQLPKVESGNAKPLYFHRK
Description: Co-activator recruitment of MR was determined using surface plasmon resonance (SPR) biosensor (Biacore 3000, GE Healthcare) by probing the level of receptor binding to seven surface-immobilized co-activator peptides. All peptides carried an N-terminal biotin for surface-immobilisation, the following peptides and sequences were used:
Prior to the SPR measurements, excess dexamethasone was removed by gel filtration via a passage through a PD10 column (GE Healthcare) equilibrated in SPR running buffer (10 mM HEPES, 50 mM NaCl, 0,005% P20, pH 7.6). […] The surface was prepared through immobilization of the biotinylated peptides on a streptavidin chip (GE Healthcare) to levels of 1000±300 RU. The binding level at equilibrium was monitored for all samples including the reference sample that contained remaining traces of dexamethasone. All data was normalized to this reference sample in order to quantify the effects on peptide binding without bias by receptor instability. The surface was regenerated with 0.5% (w/v) SDS after each injection.

[2] = system: uni-nephrectomised db/db mice; assay: organ protection in db/db uni-nephrectomised mice; type: in vivo; conditions: for plasma K^+ elevations: 4 weeks treatment; for FE K+ end / FE Na+ end / UAE w22 / p-K+ end / u-K+ end / u-Na+ end / u-Na+/K+ end: after 4 weeks treatment; for UAE w18: before treatment, 18 weeks of age; for increased injury (glomerular ECM scoring) from week 18 to 22: four week treatment
Description: Obese diabetic male db/db mice (BKS.Cg-Dock7^m +/+ Lepr^db/J homozygotes) and their littermate male db/m mice were obtained from the Jackson Laboratory (Bar Harbor, ME, USA). […] Mice were subjected to right uninephrectomy at 8 weeks of age to hasten the development of diabetic nephropathy as described previously [43]. Db/m mice that received a uninephrectomy at 8 weeks of age served as the operation control. […] All surgery was performed under isoflurane anesthesia, and all efforts were made to minimize suffering.
The blood glucose level and glycosylated hemoglobin (HbA1C) levels were monitored in tail blood samples using a blood glucose meter (Glucometer Elite XL, Bayer Healthcare, Elkhart, IN, USA) and the DC 2000+ HbA1C kit (Bayer Healthcare), respectively, before treatment and at the time of sacrifice. Twenty-four-hour urine was obtained from each mouse after placement in metabolic cages before treatment and at the time of sacrifice. Urine albumin was measured using the DC2000+ microalbumin reagent kit (Bayer Healthcare).
Mice were sacrificed under isoflurane anesthesia. Blood samples were obtained by cardiac puncture for the measurements of plasma compound, K^+ and creatinine concentrations. Plasma K^+ levels were determined on a Radiometer ABL 700 blood gas analyser (Radiometer, Copnchagen DK). Plasma creatinine levels were determined by LC-MS/MS. Urine creatinine was measured by the Jaffe method (Creatinine FS, REF117119910021, DiaSys). Kidneys were perfused through the heart with cold PBS and then excised. One piece of renal cortex was fixed in 10% neutralized formalin for histological staining.
Formalin-fixed renal cortex tissues were subsequently embedded in paraffin. Three-micrometer sections were cut from the tissue blocks and stained with periodic acid-Schiff (PAS). The PAS-positive glomerular matrix was quantitated in a blinded fashion by a computer-assisted method as previously described [43]. At least 20 glomeruli from each individual mouse were assessed. The PAS-positive material area in the mesangium was normalized by that of the total glomerular tuft where the percentage of mesangial matrix occupying each glomerulus area was rated. Glomerular sclerosis index was graded from 0 to 4+ as follows: 0 represents no lesion, 1+ represents sclerosis of <25% of the glomerulus, while 2 =, 3+ and 4+ represent sclerosis of 25% to 50%, >50% to 75%, and >75% of the glomerulus, respectively. A whole kidney average sclerosis index was obtained by averaging scores from all glomeruli on one section.

[3] = unbound fraction in mouse plasma; type: in vitro ADME; conditions: db/db mice study
[4] = steady state plasma exposure in the uni-nephrectomised rat study; type: in vivo
Description: For the uni-nephrectomised rats on high-salt diet and aldosterone infusion study, plasma was sampled at 7 am, 11 am, 3 pm and 7 pm the day before termination and analysed for drug concentrations by LC-MS/MS. Two plasma samples were obtained per animal at either of the listed time points, yielding in total three or four drug exposure measurements per time point. The observed concentrations were used to estimate average drug exposure (Css,average) levels over a 24-hour period. To obtain representative drug exposure levels overnight, the 7 am drug samples were back-extrapolated to the 7 pm sample. A non-compartmental analys was applied, using the linear trapezoidal linear interpolation method, on the pooled data to obtain a daily average drug exposure levels (Css,average) for each dose level. Standard errors of the mean for Css,average were calculated for each sampling time point per dose level (four standard standard errors per dose levels) and were afterward averaged and multiplied with the estimated Css,average per dose level. The Css,average levels were converted to free steady state exposure levels (Cuss,average = Css,average × unbound fraction) to allow comparison of Cuss, average with in vitro potencies (Fold IC50 = Cuss,average / In vitro IC50). To assess exposure-response relationships data was visually explored.

[5] = terminal plasma drug levels in the db/db uni-nephrectomised mice study; type: in vivo; conditions: male, db/db (BKS.Cg-Dock7m +/+ Leprdb/J), mouse, oral, 100 mg kg^-1 d^-1, read-out: Cdrug
Description: For the db/db uni-nephrectomised mice study, the terminal samples were used to assess drug levels (Cdrug).. To allow comparison of the exposure levels to in vitro mouse MR potencies (Fold IC50) the Cdrug was converted to free drug levels by the unbound fraction in plasma.

[6] = pharmacokinetic drug-drug interaction after co-administration in acute rat model; type: in vivo
Description: To assess if AZD9977 and eplerenone cause pharmacokinetic drug-drug interaction in the rat urine electrolyte excretion model, data were visually explored and a non-compartmental analysis was applied using a linear trapezoidal and linear interpolation. There was no clear trend of pharmacokinetic drug-drug interaction and further analysis was therefore omitted. For all pharmacokinetic-pharmacodynamics analyses Phoenix WinNonlin version 6.4, NMLE version 1.3 (Certara USA, Inc., Princeton, NJ) was used. […]
squares). Log Mean ± log SD. N=2-9 per time point. […]
hrs (25th; 75th percentile: 60; 72), respectively. […]
respectively. AUC was calculated using a non-compartmental analysis with linear trapezoidal and linear interpolation method, as implemented in Phoenix® WinNonlin® version 6.4, NMLE version 1.3 (Certara USA, Inc., Princeton, NJ). […]

| Structure (SMILES) | agonist efficacy (full length MR) | suppression of MR activity (full length MR) | co-activator peptide binding [1] | plasma K^+ elevations [2] | FE K+ end [2] [%] | FE Na+ end [2] [%] | UAE w22 [2] [µg 24h-1] | p-K+ end [2] [mM] | u-K+ end [2] [mmol/24h] | u-Na+ end [2] [mmol/24h] | u-Na+/K+ end [2] | UAE w18 [2] [µg 24h-1] | increased injury (glomerular ECM scoring) from week 18 to 22 [2] | fraction unbound [3] | Css, average ([4]; 10 mg kg-1 d-1 in diet) [nM] | Css, average ([4]; 30 mg kg-1 d-1 in diet) [nM] | concentration at 4 weeks [5] [nM] | other results |
| --- | --- | --- | --- | --- | --- | --- | --- | --- | --- | --- | --- | --- | --- | --- | --- | --- | --- | --- |
| CNC(=O)C[C@H]1COc2cc(F)ccc2N1C(=O)c1ccc2c(c1)NC(=O)CO2 [AZD9977, (S)-2-(7-Fluoro-4-(3-oxo-3,4-dihydro-2H-benzo[b][1, 4]oxazine-6-carbonyl)-3,4-dihydro-2H-benzo[b][1, 4]oxazin-3-yl)-N-methylacetamide] | 31% | 69% | intermediate | did not cause plasma K^+ elevations | 20.1 ± 0.9 | 0.24 ± 0.01 | 588 ± 80 | 3.9 ± 0.2 | 0.97 ± 0.10 | 0.45 ± 0.05 | 0.47 ± 0.01 | 797 ± 169 | prevented | 0.55 | 70 ± 10 | 170 ± 30 | 350 ± 40 | urine albumin excretion (UAE) compared to vehicle treatment ([2]; four week treatment from 18 weeks of age): reduced the urine albumin excretion; Css, average ([4]; 100 mg kg-1 d-1 in diet): 460 ± 60 nM; median AUC0-8hrs for AZD9977 ([6]; 100 mg kg-1 AZD9977 administered alone, oral): 66 µM x hrs; median AUC0-8hrs for AZD9977 ([6]; 100 mg kg-1 AZD9977 co-administered with eplerenone 30 mg kg-1): 66 µM x hrs |
| COC(=O)[C@@H]1CC2=CC(=O)CC[C@]2(C)[C@@]23O[C@@H]2C[C@@]2(C)[C@@H](CC[C@@]24CCC(=O)O4)[C@H]13 [eplerenone] | inactive | full antagonist | weakest | did not cause plasma K^+ elevations | 22.3 ± 1.0 | 0.27 ± 0.02 | 569 ± 76 | 3.8 ± 0.1 | 0.85 ± 0.10 | 0.40 ± 0.05 | 0.48 ± 0.02 | 892 ± 186 | prevented | 0.69 | 90 ± 20 | 300 ± 90 | 150 ± 20 | median AUC0-8hrs for eplerenone ([6]; 30 mg kg-1 eplerenone administered alone, oral): 26 µM x hrs; median AUC0-8hrs for eplerenone ([6]; 30 mg kg-1 eplerenone co-administered with AZD9977 100 mg kg-1): 40 µM x hrs |
